IC50 data for 36 molecules are collected here from patent US9073940B2, “Tricyclic pyrazol amine derivatives” (MERCK SERONO SA, priority 2009, dated 2015).

This test relates to 4 PI3K isoforms (Human recombinant GST-PI3K). Briefly: PI3K scintillation proximity assay, best IC50 obtained with the four isoforms (alpha, beta, delta, gamma). The class given is biochemical. As to conditions: best IC50 obtained with the four isoforms of PI3K; read-out: Best potency measured on the 4 PI3K isoforms.
As for `COc1ccc2c(c1)S(=O)(=O)Cc1c(C(=O)N3CCOCC3)nn(-c3ccccc3)c1-2` [Example 5, 7-methoxy-3-(morpholin-4-ylcarbonyl)-1-phenyl-1,4-dihydrothiochromeno[4,3-c]pyrazole 5,5-dioxide], the IC50 is 0.349 µM.
For the molecule `Cc1cccc(-n2nc(C(=O)N3CCOCC3)c3c2-c2ccccc2S(=O)(=O)C3)c1` [Example 6, 1-(3-methylphenyl)-3-(morpholin-4-ylcarbonyl)-1,4-dihydrothiochromeno[4,3-c]pyrazole 5,5-dioxide], the IC50 was determined as 0.926 µM.
For the molecule `Cc1ccc(F)cc1-n1nc(C(=O)N2CCOCC2)c2c1-c1ccccc1S(=O)(=O)C2` [Example 8, 1-(5-fluoro-2-methylphenyl)-3-(morpholin-4-ylcarbonyl)-1,4-dihydrothiochromeno[4,3-c]pyrazole 5,5-dioxide], the IC50 came out at 4.2 µM.
Under `COc1cccc(-n2nc(C(=O)N3CCOCC3)c3c2-c2ccccc2S(=O)(=O)C3)c1` [Example 9, 1-(3-methoxyphenyl)-3-(morpholin-4-ylcarbonyl)-1,4-dihydrothiochromeno[4,3-c]pyrazole 5,5-dioxide] stands 1.32 µM; under `COc1ccc(-n2nc(C(=O)N3CCOCC3)c3c2-c2ccccc2S(=O)(=O)C3)cc1` [Example 10, 1-(4-methoxyphenyl)-3-(morpholin-4-ylcarbonyl)-1,4-dihydrothiochromeno[4,3-c]pyrazole 5,5-dioxide], 0.749 µM; under `O=C(c1nn(-c2ccccn2)c2c1CS(=O)(=O)c1ccccc1-2)N1CCOCC1` [Example 11, 3-(morpholin-4-ylcarbonyl)-1-pyridin-2-yl-1,4-dihydrothiochromeno[4,3-c]pyrazole 5,5-dioxide], 1.59 µM.
On to `Cn1nc(C(=O)N2CCOCC2)c2c1-c1cccc(F)c1S(=O)(=O)C2` [Example 14, 6-fluoro-1-methyl-3-(morpholin-4-ylcarbonyl)-1,4-dihydrothiochromeno[4,3-c]pyrazole 5,5-dioxide], for which the IC50 was 0.687 µM.
Turning to `Cn1nc(C(=O)N2CCOCC2)c2c1-c1cc(F)ccc1S(=O)(=O)C2` [Example 16, 8-fluoro-1-methyl-3-(morpholin-4-ylcarbonyl)-1,4-dihydrothiochromeno[4,3-c]pyrazole 5,5-dioxide], the IC50 is 2.21 µM.
Take `O=C(c1nn(-c2ccccc2)c2c1CS(=O)(=O)c1ccc(F)cc1-2)N1CCOCC1` [Example 17, 8-fluoro-3-(morpholin-4-ylcarbonyl)-1-phenyl-1,4-dihydrothiochromeno[4,3-c]pyrazole 5,5-dioxide]: the IC50 was 0.987 µM.
Consider `O=C(c1nn(-c2ccccc2)c2c1CS(=O)(=O)c1c(Br)cccc1-2)N1CCOCC1` [Example 18], for which the IC50 was 0.494 µM.
As to `Cc1ccccc1-n1nc(C(=O)N2CCOCC2)c2c1-c1ccccc1S(=O)(=O)C2` [Example 19, 1-(2-methylphenyl)-3-(morpholin-4-ylcarbonyl)-1,4-dihydrothiochromeno[4,3-c]pyrazole 5,5-dioxide], the IC50 came to 2.29 µM.
In the case of `O=C(c1nn(-c2ccccc2Br)c2c1CS(=O)(=O)c1ccccc1-2)N1CCOCC1` [Example 20, 1-(2-bromophenyl)-3-(morpholin-4-ylcarbonyl)-1,4-dihydrothiochromeno[4,3-c]pyrazole 5,5-dioxide], the IC50 amounted to 5.5 µM.
Regarding `O=C(c1nn(-c2ccccc2F)c2c1CS(=O)(=O)c1ccccc1-2)N1CCOCC1` [Example 21, 1-(2-fluorophenyl)-3-(morpholin-4-ylcarbonyl)-1,4-dihydrothiochromeno[4,3-c]pyrazole 5,5-dioxide], the IC50 amounted to 2 µM.
The figure for `O=C(c1nn(-c2ccccc2Cl)c2c1CS(=O)(=O)c1ccccc1-2)N1CCOCC1` [Example 22, 1-(2-chlorophenyl)-3-(morpholin-4-ylcarbonyl)-1,4-dihydrothiochromeno[4,3-c]pyrazole 5,5-dioxide] is 4.02 µM.
The figure for `O=C(c1nn(-c2ccc3c(c2)OCCO3)c2c1CS(=O)(=O)c1ccccc1-2)N1CCOCC1` [Example 23, 1-(2,3-dihydro-1,4-benzodioxin-6-yl)-3-(morpholin-4-ylcarbonyl)-1,4-dihydrothiochromeno[4,3-c]pyrazole 5,5-dioxide] is 0.67 µM; for `Cc1nc2ccc(-n3nc(C(=O)N4CCOCC4)c4c3-c3ccccc3S(=O)(=O)C4)cc2s1` [Example 24, 1-(2-methyl-1,3-benzothiazol-6-yl)-3-(morpholin-4-ylcarbonyl)-1,4-dihydrothiochromeno[4,3-c]pyrazole 5,5-dioxide] it is 0.662 µM.
Under `O=C(c1nn(-c2cccc(Br)c2)c2c1CS(=O)(=O)c1ccccc1-2)N1CCOCC1` [Example 25, 1-(3-bromophenyl)-3-(morpholin-4-ylcarbonyl)-1,4-dihydrothiochromeno[4,3-c]pyrazole 5,5-dioxide] stands 0.616 µM; under `O=C(c1nn(-c2cccc(Cl)c2)c2c1CS(=O)(=O)c1ccccc1-2)N1CCOCC1` [Example 26, 1-(3-chlorophenyl)-3-(morpholin-4-ylcarbonyl)-1,4-dihydrothiochromeno[4,3-c]pyrazole 5,5-dioxide], 0.44 µM.
Consider `O=C(c1nn(-c2ccc(Br)cc2)c2c1CS(=O)(=O)c1ccccc1-2)N1CCOCC1` [Example 27, 1-(4-bromophenyl)-3-(morpholin-4-ylcarbonyl)-1,4-dihydrothiochromeno[4,3-c]pyrazole 5,5-dioxide], for which the IC50 came to 1.12 µM.
Under `O=C(c1nn(-c2ccc(F)cc2)c2c1CS(=O)(=O)c1ccccc1-2)N1CCOCC1` [Example 28, 1-(4-fluorophenyl)-3-(morpholin-4-ylcarbonyl)-1,4-dihydrothiochromeno[4,3-c]pyrazole 5,5-dioxide] stands 0.373 µM; under `O=C(c1nn(-c2ccc(Cl)cc2)c2c1CS(=O)(=O)c1ccccc1-2)N1CCOCC1` [Example 29, 1-(4-chlorophenyl)-3-(morpholin-4-ylcarbonyl)-1,4-dihydrothiochromeno[4,3-c]pyrazole 5,5-dioxide], 0.895 µM; under `CC(C)c1ccc(-n2nc(C(=O)N3CCOCC3)c3c2-c2ccccc2S(=O)(=O)C3)cc1` [Example 30, 1-(4-isopropylphenyl)-3-(morpholin-4-ylcarbonyl)-1,4-dihydrothiochromeno[4,3-c]pyrazole 5,5-dioxide], 1.47 µM.
As for `Cc1ccncc1-n1nc(C(=O)N2CCOCC2)c2c1-c1ccccc1S(=O)(=O)C2` [Example 31, 1-(4-methylpyridin-3-yl)-3-(morpholin-4-ylcarbonyl)-1,4-dihydrothiochromeno[4,3-c]pyrazole 5,5-dioxide], the IC50 was found to be 4.04 µM.
The figure for `O=C(c1nn(C2CCOCC2)c2c1CS(=O)(=O)c1ccccc1-2)N1CCOCC1` [Example 32, 3-(morpholin-4-ylcarbonyl)-1-(tetrahydro-2H-pyran-4-yl)-1,4-dihydrothiochromeno[4,3-c]pyrazole 5,5-dioxide] is 0.223 µM; for `Cn1nc(C(=O)N2CCOCC2)c2c1-c1cc([N+](=O)[O-])ccc1S(=O)(=O)C2` [Example 35, 1-methyl-3-(morpholin-4-ylcarbonyl)-8-nitro-1,4-dihydrothiochromeno[4,3-c]pyrazole 5,5-dioxide] it is 2.77 µM; for `O=C(c1nn(-c2ccccc2)c2c1CS(=O)(=O)c1ccc([N+](=O)[O-])cc1-2)N1CCOCC1` [Example 36, 3-(morpholin-4-ylcarbonyl)-8-nitro-1-phenyl-1,4-dihydrothiochromeno[4,3-c]pyrazole 5,5-dioxide] it is 1.83 µM.
The figure for `O=C(c1nn(Cc2ccccc2)c2c1CS(=O)(=O)c1ccccc1-2)N1CCOCC1` [Example 40, 1-benzyl-3-(morpholin-4-ylcarbonyl)-1,4-dihydrothiochromeno[4,3-c]pyrazole 5,5-dioxide] is 1.19 µM; for `O=C(c1nn(CCc2ccccc2)c2c1CS(=O)(=O)c1ccccc1-2)N1CCOCC1` [Example 41, 3-(morpholin-4-ylcarbonyl)-1-(2-phenylethyl)-1,4-dihydrothiochromeno[4,3-c]pyrazole 5,5-dioxide] it is 1.44 µM; for `CN(C)CCn1nc(C(=O)N2CCOCC2)c2c1-c1ccccc1S(=O)(=O)C2` [Example 42, N,N-dimethyl-2-[3-(morpholin-4-ylcarbonyl)-5,5-dioxidothiochromeno[4,3-c]pyrazol-1(4H)-yl]ethanamine] it is 1.51 µM.
Under `COCCCn1nc(C(=O)N2CCOCC2)c2c1-c1ccccc1S(=O)(=O)C2` [Example 44, 1-(3-methoxypropyl)-3-(morpholin-4-ylcarbonyl)-1,4-dihydrothiochromeno[4,3-c]pyrazole 5,5-dioxide] stands 0.907 µM.
As to `O=C(c1nn(CC2CCCO2)c2c1CS(=O)(=O)c1ccccc1-2)N1CCOCC1` (stereo not drawn) [Example 45, 3-(morpholin-4-ylcarbonyl)-1-(tetrahydrofuran-2-ylmethyl)-1,4-dihydrothiochromeno[4,3-c]pyrazole 5,5-dioxide], the IC50 was 1.56 µM.
Take `O=C(c1nn(Cc2ccccn2)c2c1CS(=O)(=O)c1ccccc1-2)N1CCOCC1` [Example 47, 3-(morpholin-4-ylcarbonyl)-1-(pyridin-2-ylmethyl)-1,4-dihydrothiochromeno[4,3-c]pyrazole 5,5-dioxide]: the IC50 worked out at 3.96 µM.
The figure for `CC(C)Cn1nc(C(=O)N2CCOCC2)c2c1-c1ccccc1S(=O)(=O)C2` [Example 50, 1-isobutyl-3-(morpholin-4-ylcarbonyl)-1,4-dihydrothiochromeno[4,3-c]pyrazole 5,5-dioxide] is 0.96 µM; for `O=C(c1nn(CC2CCCCC2)c2c1CS(=O)(=O)c1ccccc1-2)N1CCOCC1` [Example 51, 1-(cyclohexylmethyl)-3-(morpholin-4-ylcarbonyl)-1,4-dihydrothiochromeno[4,3-c]pyrazole 5,5-dioxide] it is 0.509 µM; for `O=C(c1nn(CC2CCOCC2)c2c1CS(=O)(=O)c1ccccc1-2)N1CCOCC1` [Example 52, 3-(morpholin-4-ylcarbonyl)-1-(tetrahydro-2H-pyran-4-ylmethyl)-1,4-dihydrothiochromeno[4,3-c]pyrazole 5,5-dioxide] it is 0.789 µM.
`COCCn1nc(C(=O)N2CCOCC2)c2c1-c1ccccc1S(=O)(=O)C2` [Example 53, 1-(2-methoxyethyl)-3-(morpholin-4-ylcarbonyl)-1,4-dihydrothiochromeno[4,3-c]pyrazole 5,5-dioxide]: the IC50 turned out to be 1.29 µM.
